According to patent publication US8404708B2, “Dual NK1/NK3 receptor antagonists” (Hoffmann-La Roche Inc., priority 2004, dated 2013):
pKi: −log10 of the molar value. Where two headings read alike, the source gives them in different places.

Tests used:
[1] = target: T1, Recombinant human NK3 (hNK3) receptor (Homo sapiens, UniProt P29371); assay: NK3 receptor binding, [3H]SR142801 displacement, membrane preparations; conditions: for Ki: second value of the cell NK1/NK3, read-out: pKi NK3 (converted); for pKi: second value of the cell pKi NK1/NK3, hNK3 receptor, [3H]SR142801
T1 construct: expressed in transfected cells
T1 sequence (P29371 1-465): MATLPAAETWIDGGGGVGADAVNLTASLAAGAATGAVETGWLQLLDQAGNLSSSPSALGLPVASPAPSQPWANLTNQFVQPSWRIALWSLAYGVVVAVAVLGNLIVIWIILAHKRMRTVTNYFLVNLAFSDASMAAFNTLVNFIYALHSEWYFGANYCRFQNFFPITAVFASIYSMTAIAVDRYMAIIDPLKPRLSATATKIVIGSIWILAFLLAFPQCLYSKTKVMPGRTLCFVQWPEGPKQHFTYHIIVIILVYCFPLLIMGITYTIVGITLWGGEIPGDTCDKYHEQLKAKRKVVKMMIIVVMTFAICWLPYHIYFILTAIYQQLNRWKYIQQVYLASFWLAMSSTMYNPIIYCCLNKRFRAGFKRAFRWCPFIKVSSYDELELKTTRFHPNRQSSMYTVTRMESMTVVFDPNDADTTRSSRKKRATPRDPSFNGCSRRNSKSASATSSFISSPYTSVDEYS
Outline: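 Room-temperature, 90-min filtration binding assay using about 2.5 μg recombinant receptor membranes per well; separation on polyethyleneimine-treated glass-fibre (GF/C) filters and liquid scintillation read-out, with 10 μM SB222200 for nonspecific binding.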

human NK1 receptor = human NK1 receptor (Homo sapiens, UniProt P25103); assay: NK1 receptor binding, [3H]substance P displacement, CHO cell membranes; conditions: for Ki: first value of the cell NK1/NK3, read-out: pKi NK1 (converted); for pKi: first value of the cell pKi NK1/NK3, human NK1 receptor, [3H]substance P
Sequence of human NK1 receptor (P25103 whole entry): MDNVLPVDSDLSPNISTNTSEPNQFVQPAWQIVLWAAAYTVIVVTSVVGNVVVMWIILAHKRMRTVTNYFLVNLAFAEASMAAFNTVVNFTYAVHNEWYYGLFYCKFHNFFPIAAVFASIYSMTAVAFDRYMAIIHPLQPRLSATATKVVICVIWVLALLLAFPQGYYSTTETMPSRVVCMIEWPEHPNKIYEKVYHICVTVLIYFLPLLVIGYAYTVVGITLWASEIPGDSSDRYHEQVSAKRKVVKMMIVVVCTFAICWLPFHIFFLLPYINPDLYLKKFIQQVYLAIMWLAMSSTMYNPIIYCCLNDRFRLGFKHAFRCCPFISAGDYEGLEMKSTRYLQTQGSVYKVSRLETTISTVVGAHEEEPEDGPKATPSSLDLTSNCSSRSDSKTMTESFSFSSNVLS

| SMILES | Ki [1] | Ki (human NK1 receptor) | pKi [1] | pKi (human NK1 receptor) |
| --- | --- | --- | --- | --- |
| CN(C(=O)C(C)(C)c1cc(C(F)(F)F)cc(C(F)(F)F)c1)c1cnc(N2C[C@H](O)C[C@H]2CO)cc1-c1cccnc1Cl [Example 232, (2S,4R)-2-(3,5-Bis-trifluoromethyl-phenyl)-N-[2-chloro-6′-(4-hydroxy-2-hydroxymethyl-pyrrolidin-1-yl)-[3,4′]bipyridinyl-3′-yl]-N-methyl-isobutyramide] | 1.35 nM | 0.575 nM |  |  |
| Cc1cc(C)cc(C(C)(C)C(=O)N(C)c2cnc(N3C[C@H](O)C[C@H]3CO)cc2-c2ccc(F)cc2C)c1 [Example 33, (2S,4R)-2-(3,5-Dimethyl-phenyl)-N-[4-(4-fluoro-2-methyl-phenyl)-6-(4-hydroxy-2-hydroxymethyl-pyrrolidin-1-yl)-pyridin-3-yl]-N-methyl-isobutyramide] |  |  | 8.52 | 8.93 |
| CN(C(=O)C(C)(C)c1cc(Cl)cc(OC(F)F)c1)c1cnc(N2C[C@H](O)C[C@H]2CO)cc1-c1ccccc1Cl [Example 35, (2S,4R)-2-(3-Chloro-5-difluoromethoxy-phenyl)-N-[4-(2-chloro-phenyl)-6-(4-hydroxy-2-hydroxymethyl-pyrrolidin-1-yl)-pyridin-3-yl]-N-methyl-isobutyramide] |  |  | 9.26 | 8.71 |
| CN(C(=O)C(C)(C)c1cc(C(F)(F)F)cc(C(F)(F)F)c1)c1cnc(N2C[C@H](O)C[C@H]2CO)cc1-c1ccc(F)c(F)c1 [Example 209, (2S,4R)-2-(3,5-Bis-trifluoromethyl-phenyl)-N-[4-(3,4-difluoro-phenyl)-6-(4-hydroxy-2-hydroxymethyl-pyrrolidin-1-yl)-pyridin-3-yl]-N-methyl-isobutyramide] | 3.47 nM | 1.35 nM |  |  |
| Cc1ccccc1-c1cc(N2CC[C@H](O)C[C@@H]2CO)ncc1N(C)C(=O)C(C)(C)c1cc(C(F)(F)F)cc(C(F)(F)F)c1 (racemic) [Example 190, (2RS,4SR)-2-(3,5-Bis-trifluoromethyl-phenyl)-N-(4-hydroxy-2-hydroxymethyl-4′-o-tolyl-3,4,5,6-tetrahydro-2H-[1,2′]bipyridinyl-5′-yl)-N-methyl-isobutyramide] |  |  | 8.39 | 8.80 |
| Cc1cc(F)ccc1-c1cc(NC(CO)CO)ncc1N(C)C(=O)C(C)(C)c1cc(C(F)(F)F)cc(C(F)(F)F)c1 [Example 142, 2-(3,5-bis-trifluoromethyl-phenyl)-N-[4-(4-fluoro-2-methyl-phenyl)-6-(2-hydroxy-1-hydroxymethyl-ethylamino)-pyridin-3-yl]-N-methyl-isobutyramide] |  |  | 8.59 | 8.89 |
| CCN(C(C)=O)[C@H]1CCN(c2cc(-c3ccc(F)cc3C)c(N(C)C(=O)C(C)(C)c3cc(C(F)(F)F)cc(C(F)(F)F)c3)cn2)C1 [Example 108, (S)-N-[6-[3-(Acetyl-ethyl-amino)-pyrrolidin-1-yl]-4-(4-fluoro-2-methyl-phenyl)-pyridin-3-yl]-2-(3,5-bis-trifluoromethyl-phenyl)-N-methyl-isobutyramide] |  |  | 8.05 | 8.61 |
| Cc1ccccc1-c1cc(N2C[C@@H](O)C[C@@H]2CO)ncc1N(C)C(=O)C(C)(C)c1cc(F)cc(C(F)(F)F)c1 (stereo in doubt) [Example 14, (2R,4S)-2-(3-Fluoro-5-trifluoromethyl-phenyl)-N-[6-(4-hydroxy-2-hydroxymethyl-pyrrolidin-1-yl)-4-o-tolyl-pyridin-3-yl]-N-methyl-isobutyramide] |  |  | 8.52 | 8.89 |
| CN(C(=O)C(C)(C)c1cc(C(F)(F)F)cc(C(F)(F)F)c1)c1cnc(N2C[C@H](O)C[C@H]2CO)cc1-c1cccc(Br)c1 [Example 205, (2S,4R)-2-(3,5-Bis-trifluoromethyl-phenyl)-N-[4-(3-bromo-phenyl)-6-(4-hydroxy-2-hydroxymethyl-pyrrolidin-1-yl)-pyridin-3-yl]-N-methyl-isobutyramide] |  |  | 8.07 | 8.71 |
| Cc1cc(F)ccc1-c1cc(N2CCC[C@H]2CN2CCCC2)ncc1N(C)C(=O)C(C)(C)c1cc(C(F)(F)F)cc(C(F)(F)F)c1 [Example 169, (S)-2-(3,5-Bis-trifluoromethyl-phenyl)-N-[4-(4-fluoro-2-methyl-phenyl)-6-(2-pyrrolidin-1-ylmethyl-pyrrolidin-1-yl)-pyridin-3-yl]-N-methyl-isobutyramide] |  |  | 7.67 | 8.85 |
| Cc1cc(F)ccc1-c1cc(N2C[C@H](O)C[C@H]2CO)ncc1N(C)C(=O)C(C)(C)c1cc(F)cc(F)c1 [Example 29, (2S,4R)-2-(3,5-Difluoro-phenyl)-N-[4-(4-fluoro-2-methyl-phenyl)-6-(4-hydroxy-2-hydroxymethyl-pyrrolidin-1-yl)-pyridin-3-yl]-N-methyl-isobutyramide] |  |  | 8.45 | 8.81 |
| Cc1cc(F)ccc1-c1cc(N2CCC(O)C2)ncc1N(C)C(=O)C(C)(C)c1cc(C(F)(F)F)cc(C(F)(F)F)c1 (racemic) [Example 110, (RS)-2-(3,5-Bis-trifluoromethyl-phenyl)-N-[4-(4-fluoro-2-methyl-phenyl)-6-(3-hydroxy-pyrrolidin-1-yl)-pyridin-3-yl]-N-methyl-isobutyramide] |  |  | 7.86 | 8.58 |
| Cc1cc(F)ccc1-c1cc(N2C[C@H](O)C[C@H]2CO)ncc1N(C)C(=O)C(C)(C)c1cccc(C(F)(F)F)c1 [Example 27, (2S,4R)-N-[4-(4-Fluoro-2-methyl-phenyl)-6-(4-hydroxy-2-hydroxymethyl-pyrrolidin-1-yl)-pyridin-3-yl]-N-methyl-2-(3-trifluoromethyl-phenyl)-isobutyramide] |  |  | 7.97 | 8.82 |
| CN(C(=O)C(C)(C)c1cc(C(F)(F)F)cc(C(F)(F)F)c1)c1cnc(N2CC[C@H](O)[C@H]2CO)cc1-c1cccc(Cl)c1 [Example 269, (2R,3S)-2-(3,5-Bis-trifluoromethyl-phenyl)-N-[4-(3-chloro-phenyl)-6-(3-hydroxy-2-hydroxymethyl-pyrrolidin-1-yl)-pyridin-3-yl]-N-methyl-isobutyramide] | 3.55 nM | 1.86 nM |  |  |
| C[C@H](O)CNc1cc(-c2ccccc2Cl)c(N(C)C(=O)C(C)(C)c2cc(C(F)(F)F)cc(C(F)(F)F)c2)cn1 [Example 72, (S)-2-(3,5-Bis-trifluoromethyl-phenyl)-N-[4-(2-chloro-phenyl)-6-(2-hydroxy-propylamino)-pyridin-3-yl]-N-methyl-isobutyramide] |  |  | 7.58 | 9.14 |
| CN(C(=O)C(C)(C)c1cc(C(F)(F)F)cc(C(F)(F)F)c1)c1cnc(N2CC[C@H](O)[C@H]2CO)cc1-c1ccccc1Br [Example 130, (2R,3S)-2-(3,5-Bis-trifluoromethyl-phenyl)-N-[4-(2-bromo-phenyl)-6-(3-hydroxy-2-hydroxymethyl-pyrrolidin-1-yl)-pyridin-3-yl]-N-methyl-isobutyramide] |  |  | 8.64 | 8.78 |
| CN(C(=O)C(C)(C)c1cc(C(F)(F)F)cc(C(F)(F)F)c1)c1cnc(N2CC[C@H](O)C2)cc1-c1ccccc1Cl [Example 46, (S)-2-(3,5-Bis-trifluoromethyl-phenyl)-N-[4-(2-chloro-phenyl)-6-(3-hydroxy-pyrrolidin-1-yl)-pyridin-3-yl]-N-methyl-isobutyramide] |  |  | 8.06 | 9.22 |
| CN(C(=O)C(C)(C)c1cc(C(F)(F)F)cc(C(F)(F)F)c1)c1cnc(N2C[C@@H](O)C[C@H]2CO)cc1-c1ccc(F)cc1F [Example 237, (2S,4S)-2-(3,5-Bis-trifluoromethyl-phenyl)-N-[4-(2,4-difluoro-phenyl)-6-(4-hydroxy-2-hydroxymethyl-pyrrolidin-1-yl)-pyridin-3-yl]-N-methyl-isobutyramide] | 7.76 nM | 1.02 nM |  |  |
| Cc1cc(F)ccc1-c1cc(N2CCC[C@H]2CO)ncc1N(C)C(=O)C(C)(C)c1cc(C(F)(F)F)cc(C(F)(F)F)c1 [Example 165, (S)-2-(3,5-Bis-trifluoromethyl-phenyl)-N-[4-(4-fluoro-2-methyl-phenyl)-6-(2-hydroxymethyl-pyrrolidin-1-yl)-pyridin-3-yl]-N-methyl-isobutyramide] |  |  | 8.96 | 8.68 |
| CN(C(=O)C(C)(C)c1cc(C(F)(F)F)cc(C(F)(F)F)c1)c1cnc(N2CC[C@H](O)[C@H]2CO)cc1-c1ccccc1F [Example 264, (2R,3S)-2-(3,5-Bis-trifluoromethyl-phenyl)-N-[4-(2-fluoro-phenyl)-6-(3-hydroxy-2-hydroxymethyl-pyrrolidin-1-yl)-pyridin-3-yl]-N-methyl-isobutyramide] | 2.14 nM | 1.48 nM |  |  |
| CN(C(=O)C(C)(C)c1cc(C(F)(F)F)cc(C(F)(F)F)c1)c1cnc(N2CC[C@H](O)[C@H]2CO)cc1-c1ccc(F)cc1Cl [Example 272, (2R,3S)-2-(3,5-Bis-trifluoromethyl-phenyl)-N-[4-(2-chloro-4-fluoro-phenyl)-6-(3-hydroxy-2-hydroxymethyl-pyrrolidin-1-yl)-pyridin-3-yl]-N-methyl-isobutyramide] | 1.1 nM | 2 nM |  |  |
